Reference: patent publication US4008323A, “Method of reducing cholesterol using certain aromatic keto acids” (Pierre Fabre S.A., priority 1974, dated 1977)
Read-outs that look alike come from different tables or passages of the source. Each block holds one compound with its values, some of them ahead of it.

What was measured:
[1] = Solubility properties; type: physicochemical; settings: for Solubility in ethyl alcohol: ethyl alcohol / ethanol / alcohol; for Solubility in water: in words; for Solubility in alcohol of 95° GL: alcohol / ethanol of 95° GL
[2] = Acute toxicity in mice, oral LD50 (method of Miller & Tainter); settings: mouse, in vivo, mortality determined 48 hours after administration
Experimental: The chemical compounds previously described were submitted to toxicity tests. It was determined in mice by oral administration and was calculated in accordance with the method of MILLER & TAINTER. It is generally low and greater than 1000 mg/kg.

[3] = test system: carrageenin edema; test: Carrageenin edema test in rats (antiinflammatory); type: in vivo; settings: for % var. / action (variation of paw volume increase vs controls) / change in vivo at 75 mg/kg: 75 mg/kg oral; for change in vivo at 75 mg/kg / change in vivo at 300 mg/kg / change in vivo at 200 mg/kg: Rattus norvegicus; for change in vivo at 300 mg/kg: 300 mg/kg oral; for change in vivo at 200 mg/kg: 200 mg/kg oral
Experimental: The antiinflammatory properties were shown by the carrageenin edema test in rats, the products having been administered orally 1 hour before the intrapodal injection of 0.05 ml of a 2% suspension of carrageenin; the volume of the rat's paw was measured by plethysmoscopy 3, 4 and 6 hours afterwards.
The experiment concerned for each lot […]; one lot of animals receiving only the vehicle (2 ml/100 g of Tween + water) which served for the administration of the products, constituted the control lot. The following table sets forth the results obtained: […]

[4] = test system: writhings induced by acetic acid; test: Writhing test, acetic acid (analgetic); type: in vivo, male mouse; settings: 200 mg/kg by mouth, t + 60 to t + 70 min
Experimental: The administration of the compounds is effected by mouth at the time t. […] The determination of the writhings is effected from t + 60 min. to t + 70 min. The vehicle used for the administration of the products is a 5% solution of Tween 80 in 0.9% NaCl which will serve as control.

[5] = test system: writhings induced by phenylbenzoquinone; test: Writhing test, phenylbenzoquinone (analgetic); type: in vivo, mice; settings: 200 mg/kg oral, t + 35 to t + 40 min
Experimental: The analgetic properties of certain compounds were shown in mice by the "writhing test" method, that is to say with reference to the writhings induced by phenylbenzoquinone. The administration of the product is effected orally at time t; it is followed by the intraperitoneal injection of 0.2% phenylbenzoquinone at t + 30 min. The determination of the writhings is effected from t + 35 min. to t + 40 min. One lot of animals receiving only the vehicle (5% Tween 80 in 0.9% NaCl) serves as control.

[6] = 3 hrs, read-out: % increase in volume of the paw, mean (m)
[7] = 4 hrs, read-out: % increase in volume of the paw, mean (m)
[8] = 6 hrs, read-out: % increase in volume of the paw, mean (m)
[9] = read-out: % mean variation of the volume of the paw at 3, 4 and 6 hrs
[10] = sodium salt, water, read-out: Solubility in form of sodium salt
[11] = + 3 hrs, read-out: % increase in volume of the paw, mean (m)
[12] = + 4 hrs, read-out: % increase in volume of the paw, mean (m)
[13] = + 6 hrs, read-out: % increase in volume of the paw, mean (m)
[14] = + 6 hrs, read-out: Action (variation of paw volume increase vs controls)
[15] = + 3 hrs, read-out: Action (variation of paw volume increase vs controls)
[16] = + 4 hrs, read-out: Action (variation of paw volume increase vs controls)

Solubility in NN-dimethyl acetamide [1]: 20%
Solubility in ethyl alcohol [1]: 3%
Solubility in propylene glycol [1]: 1%
solubility ([1]; water with sodium bicarbonate, water + sodium bicarbonate, read-out: Solubility in water by addition of sodium bicarbonate): 10000 µg/mL
Solubility in water ([1]; water): insoluble
SMILES: C=C(CC(=O)c1ccc(C2CCCCC2)cc1)C(=O)O [F 1353, 2-methylene 4-oxo 4-(paracyclohexylphenyl) butyric acid]

SMILES: C=C(CC(=O)c1ccc(-c2ccccc2Cl)cc1)C(=O)OC [F 1440, 2-methylene 4-oxo 4-(4'-o-chlorophenylphenyl) methyl butyrate]
Solubility in N-methyl pyrrolidone [1]: 60%
Solubility in NN-dimethyl acetamide [1]: 60%
Solubility in water ([1]; water): insoluble
LD50 at 48 h [2]: > 1000 mg/kg
% var. / action (variation of paw volume increase vs controls) ([3]; 3 hrs): -22%
% var. / action (variation of paw volume increase vs controls) ([3]; 4 hrs): -15%
% var. / action (variation of paw volume increase vs controls) ([3]; 6 hrs): -9%
change in vivo at 75 mg/kg [3, 6]: 47%
change in vivo at 75 mg/kg [3, 7]: 50.5%
change in vivo at 75 mg/kg [3, 8]: 51%
change in vivo at 75 mg/kg [3, 9]: -15%

Solubility in acetone [1]: 6%
Solubility in NN-dimethyl acetamide [1]: 10%
Solubility in dimethyl sulfoxide ([1]; dimethyl sulfoxide): 25%
Solubility in ethyl alcohol [1]: 3%
solubility [1, 10]: 10000 µg/mL
Solubility in water ([1]; water): insoluble
SMILES: C=C(CC(=O)c1ccccc1)C(=O)O [F 1350, 2-methylene 4-oxo 4-phenyl butyric acid]
change in vivo at 300 mg/kg [3, 11]: 34.3%
change in vivo at 300 mg/kg [3, 12]: 39.7%
change in vivo at 300 mg/kg [3, 13]: 46.1%
change in vivo at 300 mg/kg [3, 14]: 0%
change in vivo at 300 mg/kg [3, 9]: -17%
% Decrease (of writhings) [4]: 42,3%
Mean No. of Writhings [4]: 25,7

Solubility in N-methyl pyrrolidone [1]: 50%
Solubility in NN-dimethyl acetamide [1]: 50%
Solubility in ethyl alcohol [1]: 3%
Solubility in water ([1]; water): insoluble
SMILES: C=C(CC(=O)c1cccc2ccccc12)C(=O)O [F 1494, 2-methylene 4-oxo 4-naphthalene butanoic acid]

Solubility in N-methyl pyrrolidone [1]: 50%
Solubility in alcohol of 95° GL [1]: 8%
Solubility in NN-dimethyl acetamide [1]: 50%
Solubility in water ([1]; water): insoluble
SMILES: C=C(CC(=O)c1ccc2c(c1)CCCC2)C(=O)O [F 1495, 2-methylene 4-oxo 4-(1'-2'-3'-4'-tetrahydronaphthalene) butyric acid]

SMILES: C=C(CC(=O)c1ccc(-c2ccccc2Cl)cc1)C(=O)O [F 1496, 2-methylene 4-oxo 4-(4'-orthochlorophenylphenyl) arginine butyrate]
Solubility in water ([1]; water): soluble

SMILES: CC(=CC(=O)c1ccccc1)C(=O)Nc1cccc(C(F)(F)F)c1 [F 1442, 2-methyl 4-oxo 4-phenyl N(m-trifluoromethylphenyl) 2-butenamide]
Solubility in N-methyl pyrrolidone [1]: 40%
Solubility in alcohol of 95° GL [1]: 30%
Solubility in NN-dimethyl acetamide [1]: 40%
Solubility in water ([1]; water): insoluble
LD50 at 48 h [2]: > 1000 mg/kg
% var. / action (variation of paw volume increase vs controls) ([3]; 3 hrs): -16%
% var. / action (variation of paw volume increase vs controls) ([3]; 4 hrs): -14%
% var. / action (variation of paw volume increase vs controls) ([3]; 6 hrs): -11%
change in vivo at 75 mg/kg [3, 6]: 50%
change in vivo at 75 mg/kg [3, 7]: 51%
change in vivo at 75 mg/kg [3, 8]: 49%
change in vivo at 75 mg/kg [3, 9]: -13%

Solubility in ethyl alcohol [1]: 6%
Solubility in water ([1]; water): insoluble
SMILES: CC(=CC(=O)c1ccc(-c2ccccc2Cl)cc1)C(=O)Nc1cccc(C(F)(F)F)c1 [F 1441]

Solubility in alcohol of 95° GL [1]: 6%
Solubility in NN-dimethyl acetamide [1]: 30%
Solubility in water ([1]; water): insoluble
SMILES: C=C(CC(=O)c1ccc(OC)c(-c2ccccc2)c1)C(=O)O [F 1497, 2-methylene 4-oxo 4-(3' phenyl, 4'-methoxyphenyl) butyric acid]

SMILES: C=C(CC(=O)c1ccc(-c2ccc(Br)cc2)cc1)C(=O)O [F 1378]
change in vivo at 300 mg/kg [3, 11]: 45.4%
change in vivo at 300 mg/kg [3, 15]: -26%
change in vivo at 300 mg/kg [3, 12]: 47.9%
change in vivo at 300 mg/kg [3, 16]: -21%
change in vivo at 300 mg/kg [3, 13]: 52.4%
change in vivo at 300 mg/kg [3, 14]: -8%
change in vivo at 300 mg/kg [3, 9]: -18.3%

Solubility in N-methyl pyrrolidone [1]: 5%
Solubility in alcohol of 95° GL [1]: 1.5%
Solubility in NN-dimethyl acetamide [1]: 5%
Solubility in water ([1]; water): insoluble
SMILES: CC(=CC(=O)c1ccccc1)C(=O)N1CCOCC1 [F 1443, N-(4-phenyl 4-oxo 2-methyl 2-butenoyl)morpholine]

SMILES: C=C(CC(=O)c1ccc(Oc2ccccc2)cc1)C(=O)O [F 1380]
change in vivo at 200 mg/kg [3, 11]: 50.3%
change in vivo at 200 mg/kg [3, 15]: -18%
change in vivo at 200 mg/kg [3, 12]: 52.8%
change in vivo at 200 mg/kg [3, 16]: -12%
change in vivo at 200 mg/kg [3, 13]: 55.6%
change in vivo at 200 mg/kg [3, 14]: -3%
change in vivo at 200 mg/kg [3, 9]: -11%

Solubility in N-methyl pyrrolidone [1]: 20%
Solubility in NN-dimethyl acetamide [1]: 25%
Solubility in ethyl alcohol [1]: 1%
Solubility in water ([1]; water): insoluble
SMILES: CC(=CC(=O)c1ccc(-c2ccccc2)cc1)C(=O)O [F 1448, 2-methyl 4-oxo 4-(4'-phenylphenyl) 2-butenoic acid]

Solubility in N-methyl pyrrolidone [1]: 30%
Solubility in absolute alcohol ([1]; absolute alcohol): 1%
Solubility in NN-dimethyl acetamide [1]: 30%
Solubility in water ([1]; water): insoluble
SMILES: C=C(CC(=O)c1ccc(-c2ccc(Cl)cc2)cc1)C(=O)O [F 1449, 2-methylene 4-oxo 4-(4' p-chlorophenylphenyl) butyric acid]
% var. / action (variation of paw volume increase vs controls) ([3]; 3 hrs): -29%
% var. / action (variation of paw volume increase vs controls) ([3]; 4 hrs): -24%
% var. / action (variation of paw volume increase vs controls) ([3]; 6 hrs): -20%
change in vivo at 75 mg/kg [3, 6]: 42%
change in vivo at 75 mg/kg [3, 7]: 45%
change in vivo at 75 mg/kg [3, 8]: 44.5%
change in vivo at 75 mg/kg [3, 9]: -24%
% Decrease (of writhings) [5]: 17%
Mean No. of Writhings [5]: 27,4

Solubility in ethyl alcohol [1]: 5%
Solubility in propylene glycol [1]: 3%
solubility [1, 10]: 10000 µg/mL
SMILES: CC(=CC(=O)c1ccccc1)C(=O)O [F 1351, 2-methyl 4-oxo 4-phenyl 2-butenoic acid]
change in vivo at 300 mg/kg [3, 11]: 29.7%
change in vivo at 300 mg/kg [3, 15]: -41%
change in vivo at 300 mg/kg [3, 12]: 33.8%
change in vivo at 300 mg/kg [3, 16]: -32%
change in vivo at 300 mg/kg [3, 13]: 40.6%
change in vivo at 300 mg/kg [3, 14]: -12%
% Decrease (of writhings) [4]: 48,2%
Mean No. of Writhings [4]: 28,0

Solubility in N-methyl pyrrolidone [1]: 25%
Solubility in ethyl alcohol [1]: 3%
solubility [1, 10]: 10000 µg/mL
Solubility in water ([1]; water): insoluble
SMILES: C=C(CC(=O)c1ccc(Cl)cc1)C(=O)O [F 1352, 2-methylene 4-oxo 4-(parachlorophenyl) butyric acid]
change in vivo at 300 mg/kg [3, 11]: 35.8%
change in vivo at 300 mg/kg [3, 15]: -28%
change in vivo at 300 mg/kg [3, 12]: 37.9%
change in vivo at 300 mg/kg [3, 16]: -24%
change in vivo at 300 mg/kg [3, 13]: 37.3%
change in vivo at 300 mg/kg [3, 14]: -19%
change in vivo at 300 mg/kg [3, 9]: -23.6%
% Decrease (of writhings) [4]: 40,3%
Mean No. of Writhings [4]: 26,6

Solubility in NN dimethyl formamide ([1]; NN dimethyl formamide): 50%
Solubility in acetone [1]: 10%
Solubility in chloroform ([1]; chloroform): 5%
Solubility in ethyl alcohol [1]: 3%
Solubility in propylene glycol [1]: 1%
solubility [1, 10]: 100000 µg/mL
Solubility in water ([1]; water): insoluble
SMILES: C=C(CC(=O)c1ccc(Oc2ccccc2)cc1)C(=O)O [Example 4, 2-methylene 4-oxo 4-(paraphenoxyphenyl) butyric acid]

Solubility in N-methyl pyrrolidone [1]: 25%
Solubility in ethyl alcohol [1]: 1%
Solubility in water ([1]; water): insoluble
SMILES: C=C(CC(=O)c1ccc(-c2ccc(Br)cc2)cc1)C(=O)O [Example 5, 2-methylene 4-oxo 4-(phenyl-4'-parabromophenyl) butyric acid]

SMILES: CC(=O)Oc1ccccc1C(=O)O [acetylsalicyclic acid, reference compound]
% Decrease (of writhings) [4]: 36,6%
Mean No. of Writhings [4]: 24,7
